Results reported in PMC12801676, “Guanidino compounds with native GABA(A) δ receptor selectivity: a tale of homeostatic compensation in δ-KO mice” (BMC Neuroscience, 2025).
Values joined by “and” are separate entries in the source; they are usually repeats but may differ in a detail not shown here. Equal values may be shown once. Read-outs that look alike come from different tables or passages of the source.

Assays:
[1] = system: native GABARs in δ-KO cerebellar granule cells (CGCs); test: Whole-cell patch clamp of δ-KO cerebellar granule cells in brain slices, cumulative concentration-response; type: cell-based, mouse; settings: mean ± SEM; for δ-KO Imax: maximal evoked current at saturating agonist concentration; for EC50: steady-state currents at -70 mV, Hill fit
[2] = system: native GABARs in WT cerebellar granule cells (CGCs); test: Whole-cell patch clamp of WT cerebellar granule cells in brain slices, cumulative concentration-response; settings: for WT Imax / WT slope (Hill slope) / EC50: WT CGCs, mean ± SEM; for WT Imax: maximal evoked current at saturating agonist concentration; for EC50: read-out: WT EC50, steady-state currents at -70 mV, Hill fit; for CGC GABAR activity: concentrations up to 1 mM
[3] = biological target: GABARs in WT mouse forebrain membranes; test: [3H]muscimol displacement, WT forebrain membranes; type: binding; settings: for IC50: 5 nM [3H]muscimol; for [3H]muscimol (5 nM) displacement: concentrations up to 0.3 mM, mouse forebrain
Description: (§1) Brain (sans cerebellum) membranes from WT and δ-KO mice were prepared as described and stored frozen at -70 °C. After thawing, membranes were washed once in assay buffer (50 mM Tris-HCl, pH 7.4) and incubated for 40 min with 5 nM [^3H]muscimol in assay buffer in a total volume of 300 µl at room temperature. […] Three milliliters of Optiphase HiSafe 3 scintillation fluid (Wallac, Turku, Finland) were added to air-dried filters and GABAR bound [^3H]muscimol radioactivity determined in a Hidex 600 SL liquid scintillation counter (Hidex, Turku, Finland).

[4] = biological target: GABARs in δ-KO mouse forebrain membranes; test: [3H]muscimol displacement, δ-KO forebrain membranes; type: binding; settings: for IC50: δ-KO forebrain membranes, room temperature, mean ± SD
Description: as §1

[5] = system: recombinantly expressed γ2-GABARs; parameters: method as in PMID 9396785; settings: ref [48], read-out: functional (EC50) muscimol responses; cited from earlier work
α4β3δ receptors = biological target: α4β3δ receptors; parameters: method as in PMID 30565258; settings: ref [36], read-out: functional muscimol EC50; cited from earlier work
creatine transporter = system: creatine transporter; parameters: method as in PMID 35837012; settings: recombinant (HEK) cell expression; ref [20]; cited from earlier work
taurine transporter = system: taurine transporter; parameters: method as in PMID 512911; settings: ref [24]; read-out: Km as taurine transporter substrate; cited from earlier work
[6] = WT forebrain membranes, room temperature, mean ± SD, read-out: IC50 for [3H]muscimol displacement, WT

EC50 [1] | IC50 [3, 6] | IC50 ([4]; 5 nM [3H]muscimol) [µM] | EC50 [2] | SMILES | δ-KO Imax [1] [pA] | δ-KO slope (Hill slope) [1] | WT Imax [2] [pA] | WT slope (Hill slope) [2] | other results
– | – | – | – | NCCCC(=O)O [GABA, γ-aminobutyrate] | -65 ± 18 | 1.1 ± 0.1 | -66 ± 5 | 1.5 ± 0.3 | –
219 ± 11 µM | 8.5 ± 0.9 µM | 26 ± 5 | ~44 µM and 44 µM | N=C(N)NCCCC(=O)O [γ-GBA, γ-guanidinobutyrate] | -32 ± 7 | 0.95 ± 0.1 | -75 ± 12 | 0.81 ± 0.1 | IC50 ([3]; δ-KO values subtracted from WT values, read-out: δ-specific (WT minus δKO) displacement IC50): 3.5 ± 1.2 µM
– | – | – | – | NCc1cc(=O)[nH]o1 [[^3H]muscimol, [Methylene-^3H]muscimol, reference compound] | – | – | – | – | 5 nM [3H]muscimol binding, WT ([3]; WT forebrain, specific binding normalized to protein): 265 ± 7 fmol/mg protein; reduction of [3H]muscimol binding in δ-KO forebrain compared with WT ([4]; 5 nM [3H]muscimol, forebrain): ~ 50%; 5 nM [3H]muscimol binding, δ-KO ([4]; δ-KO forebrain, specific binding normalized to protein): 140 ± 5 fmol/mg protein
– | – | – | – | NCc1cc(=O)[nH]o1 [muscimol] | – | – | – | – | EC50 [5]: 1 to 10 µM; EC50 (α4β3δ receptors): ~0.001 µM
– | – | – | – | COc1ccc(-c2ccc(=N)n(CCCC(=O)O)n2)cc1 [gabazine, Gabazine, reference compound] | – | – | – | – | block of agonist-evoked CGC currents ([2]; currents evoked by GAA, β-GPA, γ-GBA, GES in WT and δ-KO CGCs): completely blocked
– | – | – | – | N=C(N)NCCCC(=O)C(=O)O [α-K-δ-GVA, α-Keto-δ-guanidinovalerate] | – | – | – | – | [3H]muscimol (5 nM) displacement [3]: absence of [^3H]muscimol (5 nM) displacement; CGC GABAR activity [2]: absence of detectable CGC GABAR activity
14 ± 2 µM | 3.1 ± 0.7 µM | 2.5 ± 0.3 | 4.4 ± 0.9 µM | [H]/N=C(/N)NCC(=O)O [GAA, guanidinoacetate] | -50 ± 10 | 0.94 ± 0.1 | -60 ± 18 | 1.1 ± 0.16 | –
8 µM and 8.2 µM | 3.8 µM and ~4 µM | 3.6 ± 0.6 | 3.2 ± 0.6 µM | [H]/N=C(\N)NCCC(=O)O [β-GPA, β-guanidinopropionate] | -74 ± 19 | 1.3 ± 0.2 | -45 ± 9 | 0.85 ± 0.1 | EC50 (creatine transporter): ~13 µM
– | – | – | – | N=C(N)NCCC[C@H](N)C(=O)O [arginine] | – | – | – | – | [3H]muscimol (5 nM) displacement [3]: absence of [^3H]muscimol (5 nM) displacement; CGC GABAR activity [2]: absence of detectable CGC GABAR activity
72 ± 10 µM | 36 ± 7 µM | 35 ± 4 | ~32 µM and 32 µM | NC(N)=NCCS(=O)(=O)O [GES, guanidinoethanesulfonate] | -29 ± 6 | 0.83 ± 0.2 | -35 ± 7 | 0.89 ± 0.3 | Km (taurine transporter): ~150 µM
– | – | – | – | CN(CC(=O)O)C(=N)N [creatine] | – | – | – | – | [3H]muscimol (5 nM) displacement [3]: absence of [^3H]muscimol (5 nM) displacement; EC50 (creatine transporter): ~35 µM; CGC GABAR activity [2]: absence of detectable CGC GABAR activity
